The target in one experiment is FnCpf1 (Francisella tularensis subsp. novicida, UniProt A0Q7Q2). It counts as biochemical. The conditions noted are these: FIG. 22B.
For experiment [1], the target named is T1, SpCas9 (Streptococcus pyogenes serotype M1, UniProt Q99ZW2). Nature of the experiment: cell-based.
Experiment [2] deals with CRISPR mediated gene tagging with HiBiT. The experiment is described as follows: CRISPR mediated gene tagging with HiBiT in cells (bioluminescence). The conditions noted are these: various concentrations; FIG. 17B. The experiment is classed as cell-based. (In general: The HiBiT peptide binds its large partner to form an active luciferase.)
The target of experiment [3] is T1, SpCas9. The conditions noted are these: FIG. 16C.
Experiment [4] addresses T1, SpCas9. Nature of the experiment: Broad spectrum CRISPR inhibition, SpCas9 (FIG. 22A). The experiment is classed as biochemical, S. pyogenes.

Broadly, the IC50 is the point on the concentration scale where inhibition reaches its midpoint. Low readings indicate higher potency, high ones lower potency.

SMILES strings stand for the structures. “Also recorded” adds a separate entry of the source.

T1 sequence (Q99ZW2 whole entry): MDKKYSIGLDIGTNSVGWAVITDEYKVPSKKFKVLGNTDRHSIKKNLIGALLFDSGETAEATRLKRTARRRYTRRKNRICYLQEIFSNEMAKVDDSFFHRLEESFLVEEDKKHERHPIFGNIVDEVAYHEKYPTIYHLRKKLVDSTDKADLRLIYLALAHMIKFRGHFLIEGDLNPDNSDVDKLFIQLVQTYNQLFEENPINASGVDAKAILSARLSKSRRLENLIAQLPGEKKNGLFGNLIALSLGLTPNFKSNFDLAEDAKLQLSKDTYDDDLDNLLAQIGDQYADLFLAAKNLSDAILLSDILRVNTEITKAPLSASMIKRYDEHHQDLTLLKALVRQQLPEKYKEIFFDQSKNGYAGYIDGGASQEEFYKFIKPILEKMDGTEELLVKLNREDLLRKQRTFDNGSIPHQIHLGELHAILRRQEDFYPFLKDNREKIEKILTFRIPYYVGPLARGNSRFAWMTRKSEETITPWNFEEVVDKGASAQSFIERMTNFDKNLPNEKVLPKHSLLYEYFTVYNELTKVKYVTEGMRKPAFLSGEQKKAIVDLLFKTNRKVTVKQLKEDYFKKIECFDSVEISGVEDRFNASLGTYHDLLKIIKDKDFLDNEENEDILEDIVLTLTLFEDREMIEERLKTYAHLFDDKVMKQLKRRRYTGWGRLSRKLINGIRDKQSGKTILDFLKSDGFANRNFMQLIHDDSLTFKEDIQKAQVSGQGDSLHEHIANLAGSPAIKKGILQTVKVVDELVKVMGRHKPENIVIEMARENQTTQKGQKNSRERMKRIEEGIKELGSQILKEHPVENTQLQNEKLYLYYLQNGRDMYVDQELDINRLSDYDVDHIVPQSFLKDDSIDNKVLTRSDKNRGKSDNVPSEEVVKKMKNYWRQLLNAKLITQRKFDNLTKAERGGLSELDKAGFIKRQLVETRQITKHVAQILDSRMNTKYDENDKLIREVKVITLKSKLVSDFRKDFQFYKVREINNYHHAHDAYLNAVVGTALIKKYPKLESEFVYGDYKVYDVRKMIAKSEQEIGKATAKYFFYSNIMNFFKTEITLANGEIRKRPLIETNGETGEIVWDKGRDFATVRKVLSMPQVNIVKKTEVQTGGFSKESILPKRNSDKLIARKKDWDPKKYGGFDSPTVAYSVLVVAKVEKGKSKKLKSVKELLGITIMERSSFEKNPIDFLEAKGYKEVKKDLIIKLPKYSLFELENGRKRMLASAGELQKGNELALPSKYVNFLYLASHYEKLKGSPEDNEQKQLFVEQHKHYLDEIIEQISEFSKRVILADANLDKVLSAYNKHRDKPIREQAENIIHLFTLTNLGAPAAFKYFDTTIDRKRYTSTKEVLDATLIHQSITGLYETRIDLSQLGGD
Chain of FnCpf1 (A0Q7Q2 whole entry, looked up): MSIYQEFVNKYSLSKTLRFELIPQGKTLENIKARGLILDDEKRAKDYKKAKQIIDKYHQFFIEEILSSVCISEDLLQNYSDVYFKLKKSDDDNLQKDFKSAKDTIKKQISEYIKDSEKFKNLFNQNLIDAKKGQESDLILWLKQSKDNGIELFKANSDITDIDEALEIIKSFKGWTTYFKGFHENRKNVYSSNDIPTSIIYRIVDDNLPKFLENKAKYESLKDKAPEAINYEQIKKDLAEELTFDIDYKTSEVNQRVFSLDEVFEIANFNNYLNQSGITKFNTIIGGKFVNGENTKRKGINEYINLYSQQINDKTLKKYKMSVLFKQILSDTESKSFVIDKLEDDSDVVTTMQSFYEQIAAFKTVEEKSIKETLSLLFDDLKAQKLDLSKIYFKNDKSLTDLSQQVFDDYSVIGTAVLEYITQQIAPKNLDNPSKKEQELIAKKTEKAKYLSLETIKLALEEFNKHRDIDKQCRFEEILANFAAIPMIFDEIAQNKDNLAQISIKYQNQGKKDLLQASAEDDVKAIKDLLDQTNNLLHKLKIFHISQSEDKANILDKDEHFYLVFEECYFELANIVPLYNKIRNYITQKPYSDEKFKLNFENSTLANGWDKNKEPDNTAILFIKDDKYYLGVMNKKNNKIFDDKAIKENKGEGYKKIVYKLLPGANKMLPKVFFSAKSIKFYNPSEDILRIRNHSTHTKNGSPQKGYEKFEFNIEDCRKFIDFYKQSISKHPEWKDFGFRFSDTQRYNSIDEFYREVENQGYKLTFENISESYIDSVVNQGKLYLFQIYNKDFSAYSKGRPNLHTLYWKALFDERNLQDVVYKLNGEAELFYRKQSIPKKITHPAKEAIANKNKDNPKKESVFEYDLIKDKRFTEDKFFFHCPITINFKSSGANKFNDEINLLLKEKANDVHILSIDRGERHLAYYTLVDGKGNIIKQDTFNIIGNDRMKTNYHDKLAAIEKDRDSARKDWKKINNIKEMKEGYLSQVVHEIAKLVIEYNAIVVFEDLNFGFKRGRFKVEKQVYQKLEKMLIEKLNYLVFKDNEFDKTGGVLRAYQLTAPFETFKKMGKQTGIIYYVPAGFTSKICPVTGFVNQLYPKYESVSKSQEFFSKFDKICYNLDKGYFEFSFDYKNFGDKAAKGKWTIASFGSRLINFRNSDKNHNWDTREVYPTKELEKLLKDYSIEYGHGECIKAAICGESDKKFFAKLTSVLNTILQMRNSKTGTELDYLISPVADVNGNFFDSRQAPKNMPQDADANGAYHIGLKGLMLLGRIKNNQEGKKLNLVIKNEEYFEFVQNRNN

In the case of `N#C[C@@H]1N[C@H](CO)[C@H]1c1ccc(-c2ccccc2F)cc1` [BRD7608], the “Inhibition of FnCpf1” value at FnCpf1 is given as “broad-spectrum CRISPR inhibitors; also recorded: similarly inhibit”. The compound further came in with an IC50 on SpCas9 [1] of 3.9 µM. Further, the “Inhibition of CRISPR mediated gene tagging with HiBiT (bioluminescence)” value in experiment [2] is reported as “inhibited in a dose-dependent manner”. The “eGFP fluorescence in the presence of eGFP-targeted SpCas9 activity” value on SpCas9 [3] is recorded as “eGFP fluorescence is maintained”. Besides, the “Inhibition of SpCas9” value on SpCas9 [4] is recorded as “broad-spectrum CRISPR inhibitors; also recorded: similarly inhibit”.
`N#C[C@H]1N[C@@H](CO)[C@@H]1c1ccc(C#CC2CCCC2)cc1` [BRD9822]: the “Inhibition of FnCpf1” value on FnCpf1 was “broad-spectrum CRISPR inhibitors; also recorded: similarly inhibit”. This compound gave an IC50 against SpCas9 [1] of 5.5 µM. In addition, in experiment [2], the “Inhibition of CRISPR mediated gene tagging with HiBiT (bioluminescence)” value was “inhibited in a dose-dependent manner”. In addition, the “eGFP fluorescence in the presence of eGFP-targeted SpCas9 activity” value at SpCas9 [3] is given as “eGFP fluorescence is maintained”. Also, the “Inhibition of SpCas9” value at SpCas9 [4] was “broad-spectrum CRISPR inhibitors; also recorded: similarly inhibit”.

The record behind these values is patent publication US12460244B2, “Inhibitors of RNA-guided nuclease activity and uses thereof” (THE BROAD INSTITUTE, INC., priority 2018, dated 2025).
